Results on three compounds are retold here after patent US10285977B2, “Compositions and methods for treating alopecia” (David Weinstein Consulting, Inc., priority 2015, dated 2019).

The test system of assay [1] is dermabrasion lesions of dorsal skin. As to the kind of experiment: Dermabrasion lesions of dorsal skin of mice treated with RT1061. It counts as in vivo, ICR mice. As to conditions: 5 μL of 100 nanomolar topically once daily, 10 days. The method, then:
Retired ICR breeder mice of both sexes with weight between 45 and 50 grams were shaved and rasped to induce dermabrasion lesions. The animals were then randomly assigned (5 per treatment arm) to one of two groups to receive either 5 μL of 100 nanomolar RT1061 or a vehicle control. RT1061 or vehicle control was applied topically to the lesion site once each day including immediately after dermabrasion.

The next assay relates to androgenetic alopecia. As to conditions: at 6-months, cited from earlier work.
A further assay deals with mouse dorsal skin. Put plainly: Punch biopsies of mouse dorsal skin treated topically with RT175. Format: in vivo, mice. On the procedure: Mice underwent 5 millimeter, full thickness, punch biopsies of their dorsal skin. Mice were then treated topically with 120 nanograms (“ng”) of RT175, daily.
For a further assay, the system named is scalp. As to the kind of experiment: Scalp closure following craniotomy in rats treated with RT175. Format: in vivo. Particulars: RT175 treatment. From the text:
Rats which had undergone brain surgery to test RT175 mediated regeneration of the brain following stroke. Following surgery, the scalp was closed.

Another assay has as its system skin lesions. Put plainly: Skin lesions in pig treated topically with RT175. It counts as in vivo. Particulars: single pig, 120 ng topically daily. On the procedure:
A single pig underwent bilateral, slit thickness, skin surgery leaving lesions on opposite sides of the pig. One of these lesions was then treated topically with 120 ng of RT175, daily. The other lesion was treated with vehicle only. […] See FIG. 3 and compare 3(b) to 3(a). The de novo hair growth is consistent with the regeneration of the upper hair follicles, most of which would have been removed as the […] sliced through the skin in creating the split thickness wounds.

The subject of another assay is androgenic alopecia. As to the kind of experiment: person with androgenic alopecia treated topically with RT175 and RT175/minoxidil. It counts as in vivo, human. As to conditions: 4 months; 120 ng/mL RT175, 1 mL twice daily on crown. On the procedure: The subject went on treatment holiday for 1 month, before beginning treatment with 120 ng/mL of RT175 and 5% w/v minoxidil in 30% w/v ethanol, 50% w/v propylene glycol and 20% w/v water. FIG. 4(c) depicts the subjects scalp before initiation of the second round of treatment.

For another assay, the system named is hair. As to conditions: rats after craniotomy prior to neurosurgery; cited from earlier work.
In another assay the test system is hair growth. As to conditions: shaved mice; cited from earlier work.
Assay [2] concerns the target T1, FK506 binding protein 4 (“FKBP52”) (Homo sapiens, UniProt Q02790).
T1 sequence (Q02790 1-459): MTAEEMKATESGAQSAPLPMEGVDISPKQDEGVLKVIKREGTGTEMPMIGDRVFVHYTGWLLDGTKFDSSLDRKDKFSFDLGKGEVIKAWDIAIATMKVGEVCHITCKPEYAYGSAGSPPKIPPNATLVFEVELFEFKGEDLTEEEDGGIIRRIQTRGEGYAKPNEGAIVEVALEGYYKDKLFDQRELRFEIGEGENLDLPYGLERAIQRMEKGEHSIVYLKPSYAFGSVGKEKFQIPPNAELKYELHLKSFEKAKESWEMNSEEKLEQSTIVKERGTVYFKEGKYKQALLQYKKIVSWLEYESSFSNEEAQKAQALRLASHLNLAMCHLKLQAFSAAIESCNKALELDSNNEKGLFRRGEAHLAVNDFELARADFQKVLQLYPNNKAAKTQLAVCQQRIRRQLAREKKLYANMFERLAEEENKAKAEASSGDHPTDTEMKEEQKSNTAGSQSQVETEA
As to conditions: cited from earlier work.

The target in a further assay is T2, FKBP52 (Homo sapiens, UniProt Q02790).
T2 construct: endogenous in cells
T2 sequence (Q02790 1-459): T1 sequence (Q02790 1-459)
Particulars: fibroblasts treated for 2 hours; cited from earlier work.

With `CCC(C)(C)C(=O)C(=O)N1CCCC1Cc1ccccc1` (stereo not shown) [RT1061], in [1], the hair growth result is “rapid hair growth” and the skin regeneration entry is recorded as “rapid regeneration of rasped skin”.

Regarding `Nc1cc(N2CCCCC2)nc(N)[n+]1[O-]` [minoxidil], in the assay on androgenetic alopecia, the “treated individuals who maintained existing hair with no additional loss” value was 50%. Besides, the “treated individuals with new hair growth” value with androgenetic alopecia (minoxidil treatment) was 15%.

In the case of `CCC(C)(C)C(=O)C(=O)N1CCC[C@H]1C(=O)O` [RT175], the “healing of the wound site versus vehicle” value in the assay with mouse dorsal skin (5 days after punch biopsy, 120 ng RT175 topically daily) is given as “clearly accelerated”. For the same compound, the “treated wounds completely closed” value in the assay on mouse dorsal skin (9 days after punch biopsy, 120 ng topically daily) came to 80%. Also, in the assay on mouse dorsal skin (9 days after punch biopsy, intact follicles even in the middle of the wound), the “hair regeneration in the wound” value is recorded as “robust hair regeneration”. In addition, in the assay on mouse dorsal skin (after day 9, 120 ng topically daily), the “time for the other 20% of treated wounds to close” value is at most 18 h. In addition, the “scalp closure after brain surgery” value with scalp is “full scalp closure”. Moreover, in the assay on skin lesions, the “hair regeneration in the lesion” value was “regeneration of hair”; the “lesion healing versus vehicle-treated lesion” value is “early and transient appearance of granulation tissue, followed by rapid revascularization, invasion of newly formed skin from wound edges, accelerated repigmentation”. The hair growth result with androgenic alopecia is “absence of hair growth”. For the same compound, the hair regrowth entry in the assay on hair is recorded as “re-grow hair”. In addition, in the assay with hair growth, the hair growth entry is “induce hair growth”. The binding affinity entry in assay [2] is “high affinity”. Besides, the FKBP52 localisation entry at FKBP52 is “translocation of FKBP52 to the nucleus”.
